From paper PMC3275588, “Cellular Growth Kinetics Distinguish a Cyclophilin Inhibitor from an HSP90 Inhibitor as a Selective Inhibitor of Hepatitis C Virus” (PLoS ONE, 2012)
Where “and” joins values, the source holds several entries; their conditions need not be identical. Equal entries are not always repeated. Where two headings read alike, the source gives them in different places.

How the values were obtained:
[1] = Calcein AM intracellular esterase activity (cell viability)
Protocol: (§1) Using a stable cell line replicating a luciferase-encoding HCV replicon, we measured viral replication levels (Renilla luciferase) across a range of drug concentrations (2 nM to 44.4 µM) three days post drug addition. In parallel, we measured intracellular esterase activity as a surrogate for cell viability using the Calcein AM reagent.
(§2) Renilla luciferase replicon cell assays were performed as previously described. Calcein AM (Anaspec, Fremont, CA) and CellTiter-Glo (Promega, Madison, WI) readouts were performed as instructed by the manufacturer.

[2] = CellTiter-Glo intracellular ATP (cell viability)
Protocol: as §2

[3] = system: HCV replicon cells; experiment: CellTiter-Glo intracellular ATP (cell viability); settings: three day assay
Protocol: as §2

[4] = system: luciferase-encoding HCV replicon; experiment: HCV replicon Renilla luciferase antiviral assay; type: cell-based, hepatitis C virus; settings: three days post drug addition
Protocol: as §1, §2

[5] = Cell number by count of Hoechst-stained nuclei; type: cell-based; settings: genotype 1a HCV replicon cells; Hoechst-stained nuclei, three days
Protocol: (§3) For direct assessment of cell number, genotype 1a replicon cells were seeded in 384 well plates at 1500 cells/well. Compounds were added as previously described. Cells were fixed in 1% paraformaldehyde (Electron Microscopy Sciences) and 25 µg/ml Hoechst 33342 (Invitrogen) in PBS for 30 minutes at room temperature. The fixed cells were washed twice with PBS, and images of each well were acquired with the ImageXpress Micro (Molecular Devices, Sunnyvale, CA). Nuclei were quantified with the cell scoring application in MetaXpress (Molecular Devices, Sunnyvale, CA).

[6] = system: genotype 1a replicon cells; experiment: Cell number by count of Hoechst-stained nuclei; type: cell-based; settings: three days; for number of cells per image / effect on number of cells per image: 1 µM compound
Protocol: as §3

[7] = system: HCV replicon cells; experiment: Calcein AM intracellular esterase activity (cell viability)
Protocol: as §1, §2

[8] = system: HCV replicon cells; experiment: Cellular growth by percent confluence (IncuCyte time-lapse microscopy); type: cell-based; settings: for effect on kinetics of cellular proliferation: 1 µM, % confluence every four hours; for minimum inhibitory concentration (MIC) for growth rate: lowest concentration with significant decrease in growth rate
From the text: To distinguish between these two mechanisms, we directly measured cellular confluence (the percent of the culture well occupied by cells, % confluence) every four hours and quantified cellular replication rates.
We next determined if 17-AAG slows cell growth at the same concentration at which it inhibits HCV replication. We quantified growth rate by assessing the change in % confluence between days 1 and 2 (% confluence/day) and measured the effect of growth rate as a function of dose.
(§4) To assess cellular growth, 96 well plates ImageLock plates (Essen Instruments, Ann Arbor, MI) were seeded at a density of 5×10^3 cells/well in culture medium without G418. Percent confluence was quantified using bright phase images (at 10× magnification) acquired of each well every four hours in an IncuCyte (Essen Instuments, Ann Arbor, MI). Alternatively, 7.5×10^4 cells/well were plated in 6 well plates. Each day post drug addition, cells were dislodged from the tissue culture plate using 350 µL trypsin-EDTA and then quenched with 150 µL fetal bovine serum. The number of cells that exclude trypan-blue was determined using the Vi-Cell (Beckman Coulter, Fullerton, CA) in triplicate.

[9] = system: HCV replicon cells; experiment: Trypan-blue exclusion viable cell count; type: cell-based; settings: 1 µM, multiple timepoints post drug addition
Protocol: Cells treated were trypsinized and quantified at multiple timepoints post drug addition (Fig. 5C).
as §4

[10] = system: Infectious HCV (2a) Min3 virus in non-dividing Lunet-CD81 cells; experiment: Extracellular HCV titer in HCV-infected non-dividing cultures; type: cell-based, hepatitis C virus; settings: for reduction of infectious HCV titer: 10×EC50 (0.35 µM)
Protocol: (§5) Because 17-AAG slows cellular proliferation at concentrations similar to its effective concentration for inhibiting HCV replication, we next assessed whether it inhibited HCV replication in non-dividing cells. We first established a non-dividing monolayer of Lunet-CD81 cells and then infected that monolayer with cell-culture adapted virus capable of spreading and infecting all of the cells in a culture. […] When the fully-infected non-dividing cultures were treated with DMSO alone, the extracellular viral titer remained relatively constant at between 10^5 and 10^6 TCID50/ml over time (Fig. 6A). […] The reduction in HCV titer caused by 17-AAG, may at least in part, result from the modest toxicity observed in the non-dividing monolayers at the concentrations used.
HCV-infected non-dividing cultures were established by methods adapted from Sainz and Chisari. Briefly, Lunet-CD81 cells were seeded in 12-well plates at a density of 50,000 cells/well. The plates were incubated over-night at 37°C and subsequently DMSO was added to 1% final concentration. Cells were allowed to grow to confluence over three days. Infectious HCV (2a) with three adaptive mutations (the Min3 virus) (core K78E, NS2 W879R, and NS4B K1761N) was then added to each well at an MOI of five. […] 200 µl aliquots of the extracellular medium were saved daily, stored at −80°C, and subsequently used for infectious viral titering. After three days, the compound-medium was refreshed and time points were collected for seven days. Viral titers as a percentage of the DMSO-treated control were measured through diluting the extracellular medium 40-fold and using it to infect naïve Lunet-CD81 cells. After 72 hours of incubation, intracellular HCV replication was measured by following NS3-4A protease cleavage of a europium-labeled peptide.

[11] = system: adapted HCV (2a) in dividing cells; experiment: Extracellular HCV titer in fully-infected dividing cultures; type: cell-based, hepatitis C virus
Protocol: As a comparative control, we performed the same compound-treatment using fully-infected cultures that were still dividing (see Materials and Methods). […] The inhibitory effect of 17-AAG was diminished only as the cell cultures reached confluence (days 3 and 4 post-compound addition) (Fig. 6B).
As a comparative control, fully-infected, growing cell cultures were prepared as well. Briefly, cells were plated at 25,000 cells/well on 12-well plates. After the cells adhered to the plate (four hours post-seeding), they were infected at an MOI of five using adapted HCV (2a) (see above). The HCV infection was permitted to spread until the cultures were fully infected (three days post-infection). Subsequently, compounds were added and extracellular medium was removed each day and analyzed as described above.

[12] = system: HCVcc Min3 virus; experiment: Antiviral potency in rapidly-dividing virus-infected cells (NS3-4A protease activity); type: cell-based, hepatitis C virus
Protocol: To assess the antiviral potency of compounds in rapidly-dividing virus-infected cells. we adapted a method from a previously described assay. Briefly, 1500 cells per well were plated in 384 well-plates. Infection with the HCVcc Min3 virus (core K78E, NS2 W879R, and NS4B K1761N) was followed by addition of compound as described. After three days, intracellular NS3-4A protease activity was assessed. Luciferase, Calcein, CellTiter-Glo, and NS3-4A levels were expressed as a percent of the no-drug control.
Supplementary file pone.0030286.s001.tif: Figure S1 CsA and 17-AAG maintain potency, similar to rapidly-dividing replicon cells, in rapidly-dividing virus-infected cells. The normalized amount of virus, as measured by enzymatic activity of the NS3-4A protease, was determined as a function of dose. […] (TIF) Click here for additional data file.

[13] = system: non-dividing Lunet-CD81 monolayers; experiment: Cell number in non-dividing monolayers
Protocol: as §5

Row | Structure (SMILES) | CC50 at 3 days [1] [nM] | CC50 at 3 days [2] [nM] | EC50 ([4]; Hepatitis C virus, 72 h) [nM] | CC50 at 3 days [5] [nM] | number of cells per image [6] | effect on number of cells per image [6] | effect on kinetics of cellular proliferation [8] | minimum inhibitory concentration (MIC) for growth rate [8] [µM] | effect on number of viable cells [9] | further results
1 | COc1cc2c(c(OC)c1OC)-c1ccc(OC)c(=O)cc1[C@@H](NC(C)=O)CC2 [Colchicine, colchicine] | > 44400 | 16 |  |  |  |  |  |  |  | intracellular ATP signal ([3]; maximal effect): < 7 % of the untreated controls
2 | Nc1ccn([C@@H]2O[C@H](CO)[C@@H](O)C2(F)F)c(=O)n1 [Gemcitabine, gemcitabine] | > 44400 | 6 | 12 | 4 | ~22 % of the controls |  |  |  |  | 
3 | COc1ccc(C[C@H](N)C(=O)N[C@H]2[C@@H](O)[C@H](n3cnc4c(N(C)C)ncnc43)O[C@@H]2CO)cc1 [Puromycin, puromycin] | 1070 | 516 | 290 | 52 |  | eliminated all cells | rapid elimination of cells | 0.205 | reduced the number of viable cells equally effectively | difference between CC50 (toxic concentration) and EC50 (antiviral concentration) ([7]; Calcein assay vs replicon assay): ≤ 4 fold
4 | COc1ccc2c(O[C@@H]3C[C@H]4C(=O)N[C@]5(C(=O)O)C[C@H]5/C=C\CCCCC[C@H](NC(=O)OC5CCCC5)C(=O)N4C3)cc(-c3csc(NC(C)C)n3)nc2c1 [BILN-2061] |  |  |  |  |  |  |  |  |  | suppression of infectious HCV titer ([10]; non-dividing cells, 10×EC50, sustained over 7-day time course): 2 log; effect on viral titers ([11]; dividing and non-dividing cells, 10×EC50): inhibited viral titers in both dividing and non-dividing cells; EC50 ([12]; Hepatitis C virus, 72 h): 140 nM; effect on number of cells ([13]; human, 10 ×EC50): neither CsA nor BILN 2061-treatment decreased the number of cells
5 | CNC(=O)c1c(-c2ccc(F)cc2)oc2cc(N(CCO)S(C)(=O)=O)c(C3CC3)cc12 [HCV-796] | > 44400 | > 44400 | 15 | > 44400 |  | Neither 1 µM CsA (Fig. 4C) nor HCV-796 (Fig. 4A) altered the number of cells per image |  |  | Neither CsA nor HCV-796 treatment affected cell viability | cytotoxicity (intracellular esterase activity) ([7]; 2 nM to 44.4 µM, three days): without any observable cytotoxicity; toxicity by cell number ([6]; dose response): non-toxic at all concentrations tested; effect on cell proliferation (growth rate as a function of dose) ([8]; any concentration tested): did not significantly impair cell proliferation at any concentration tested
6 | C=CCNC1=C2C[C@@H](C)C[C@H](OC)[C@H](O)[C@@H](C)/C=C(\C)[C@H](OC(N)=O)[C@@H](OC)/C=C\C=C(/C)C(=O)NC(=CC1=O)C2=O [17-AAG, 17-(Allylamino)-17-demethoxygeldanamycin] |  |  |  |  | ~22 % of the controls |  | slowed the kinetics of cellular proliferation significantly | 0.022 | reduced the number of viable cells equally effectively | EC50 [4]: 12.1 nM and 12 nM; CC50 ([7]; read-out: CC50 Calcein, intracellular esterase activity, three day assay): 21000 nM; CC50 ([3]; read-out: CC50 Intracellular ATP, CellTiter-Glo): 38 nM; CC50 ([6]; Hoechst-stained nuclei): 5 nM; growth rate ([8]; 22 nM, change in % confluence between days 1 and 2): 18.0+/−1.1 % confluence/day; antiviral effect on HCV titer ([10]; non-dividing cell-culture model of HCV replication): little antiviral effect; reduction of infectious HCV titer ([10]; non-dividing cells, Day 7): 0.3 log; reduction of infectious HCV titer ([10]; non-dividing cells, day 2): 0.6 log; reduction of level of infectious HCV ([11]; dividing cells, 10×EC50, after 24 hours of treatment): roughly 2 logs; EC50 ([12]; rapidly-dividing virus-infected cells, NS3-4A protease activity, three days, read-out: EC50): 35 nM; number of cells ([13]; non-dividing monolayers, 10×EC50): 74 % of the DMSO-treated control
